Structures are written as SMILES.

Series [1] relates to systemic scleroderma. As to conditions: known preparations; cited from earlier work.
The conditions of series [2]: cited from earlier work.
A short description of series [3]: acute toxicity, single dose by probe into the stomach, albino mice, 3 days observation (Litchfield and Wilcoxson). As to conditions: mouse, in vivo, po, albino mice 16-17 g, limits in parentheses. As to the method: The proposed preparation was tested for toxicity in the acute and chronic tests. The acute toxicity of the preparation was determined in tests in albino mice (weighing 16 to 17 g) by introducing (by means of a probe into the stomach) amounts equal to 1,000 to 5,000 mg/kg of the animals body weight. Each dose was tested in five animals. Observation was continued for three days.

The nature of series [4]: single administration by probe into the stomach to narcotized cats. Format: in vivo. The procedure:
After a 1,000 mg/kg dose, these symptoms are more pronounced.

A short description of series [5]: chronic toxicity test, daily doses for three months, white rats. Format: in vivo. As to conditions: for Index of anti-toxic function of the liver (quantity of isolated benzoic acid): P = 0.05. As to the method:
[…] Each dose was investigated in 20 animals (10 males and 10 females). Twenty rats served as controls. Changes in weight were recorded, the general status and behavior were observed, the peripheral blood picture was examined (hemoglobin, erythrocytes, leukocytes, thrombocytes, the leukocytary formula). For determining the functional state of the liver, kidneys, the pancreas, some biochemical indices of the urine (albumin, sugar, bile pigments) and the blood (sugar, cholesterol, bilirubin, urea, alkaline phosphatase, chlorides) were examined, just as the antitoxic function of the liver.
After the end of the tests the animals were slaughtered by decapitation: part of them immediately after the administration of the preparation, part-ten days later.
The internal organs of the slaughtered animals were examined both macro- and microscopically.

The test system of the next series is normal fibroblasts. As to the kind of experiment: 48-hour study of effect on cell growth in a culture of normal fibroblasts from healthy donors. Format: cell-based. The following applies: Fibroblast, 100-gamma per 1 ml of medium, read-out: reduction of the number of cells in the culture. The text has this:
This fact explains to a certain degree the action mechanism of the preparation in cases of systemic scleroderma.

Another series deals with rheumatoid arthritis. The series is described as follows: clinical trial in patients with rheumatoid arthritis. Format: in vivo. The procedure: (§1) The method of treatment consists in oral administration of the proposed preparation in 0.1 to 0.2 g doses in tablet form […], or in the form of a 5% solution for injections with 5 ml doses once a day. The daily dose shall not be over 0.6 g per patient.
The main group (69 persons) consisted of patients with rheumatoid arthritis in the 2nd and 3rd degree of activity.

Series [6] relates to systemic lupus erythematosus. The series is described as follows: clinical treatment of systemic lupus erythematosus. Format: in vivo, patients. The procedure:
as §1
Eight patients were treated for systemic lupus erythematosus.

For series [7], the system named is systemic scleroderma. The series is described as follows: clinical treatment of systemic scleroderma. The series is classed as in vivo, patients. The procedure: as §1
Five patients were treated for systemic scleroderma. […] One of these patients, following a 1.5 year course of treatment, resumed work after a three-year interval caused by the disease.

Another series deals with adrenal cortex. As to the kind of experiment: corticosteroid concentration in the blood of rheumatoid arthritis or systemic lupus erythematosus patients during clinical trials. The series is classed as in vivo. The following applies: regularly given. An excerpt:
Accordingly, the observed increase of the concentration of corticosteroids in the blood of rheumatoid arthritis or systemic lupus erythematosus patients, regularly given the proposed preparation during clinical trials in the above mentioned doses, testifies to its stimulating effect on the andrenal cortex.

A short description of series [8]: side effects and action on lasting administration, compared with known remedies for collagenoses. The series is classed as in vivo.
The mark [9] stands for this setting: most of the patients, continued treatment.

For the compound `CC(C)Cc1ccc(C(C)C(=O)O)cc1` (stereo not shown) [Brufen], in the series on systemic scleroderma [1], the “whether the above results are produced in systemic scleroderma” value is given as “not produced”.

For `CCN(CC)CCCC(C)Nc1ccnc2cc(Cl)ccc12` (stereo not shown) [Delagil], in [2] (treatment of collagenoses of a rheumatoid nature), the “complications of antimalarial preparations” value was “cause leukopenia, and also affect the acoustic and optic nerves, the liver, the myocardium”.

As to `Cc1[nH]c(=O)[nH]c(=O)c1S(=O)(=O)Nc1ccc(S(=O)(=O)c2ccc(NS(=O)(=O)c3c(C)[nH]c(=O)[nH]c3=O)cc2)cc1` [preparation, p,p-/2,4-dioxy-6-methyl pyrimidinyl-5-sulfonamino/diphenyl sulfone], in [3], the LD50 at 72 h amounted to 2600 mg/kg. Moreover, in series [4] (single 500 mg/kg), the symptoms result was “unrest is observed (motorial excitation, mewing, salivation and vomiting)”; the “time after administration at which unrest is observed” value was 10 to 20 min. In addition, in series [4] (single 1,000 mg/kg), the “condition on the second day after administration” value is “returned to normal”; the symptoms result is “these symptoms are more pronounced. There is repeated vomiting and loss of appetite”. Further, in series [4] (single 100 to 200 mg/kg), the visible changes entry was “no visible changes”. Besides, the “Index of anti-toxic function of the liver (quantity of isolated benzoic acid)” value in [5] (females, after 3 months of 100 mg/kg oral doses (controls 10.1±5.1)) came out at 10.9±2.2. Also, the “Index of anti-toxic function of the liver (quantity of isolated benzoic acid)” value in series [5] (males, after 3 months of 100 mg/kg oral doses (controls 6.68±0.33)) was 6.5±1.14. In addition, in series [5] (rat, in vivo), the “fattiness at post mortem examination” value was “good fattiness”; the “macro- and microscopic examination of organs” value is “no pathological changes”; the “weight of thyroid gland, testes, spleen and adrenal glands versus control group” value was “did not differ”. Moreover, in the series on normal fibroblasts, the inhibition at 100 µg/mL is 30%. Further, the “articular index after treatment, average” value with rheumatoid arthritis (61 patients, from 46-48 points) is 16-20 points. For the same compound, the “gravest patients who became capable of taking care of themselves unaided” value in the series on rheumatoid arthritis (administration for 1.5 to 2 years, three bed-ridden for 3 to 5 years) was “Eight”. Besides, the “first compression force after treatment, average” value with rheumatoid arthritis (all the patients, from 14.4±1.7 kgf) amounted to 22.0±2.1 kgf. The “corticosteroid content in the blood” value in the series on rheumatoid arthritis (due to the increasing activity of the 11-oxicorticosteroids) is recorded as “increase”. Also, in the series on rheumatoid arthritis (during the period of treatment), the “patients with articular index without change” value is 8 patients and the “patients with reduced articular index” value is 61 patients. Moreover, in the series with rheumatoid arthritis (from (++++), most of the patients, continued treatment), the “C-reactive protein after treatment” value was “(++) and even (+)”. Also, the “patients in whom the pain syndrome disappeared” value in the series with rheumatoid arthritis (majority of patients, on the 10th to 12th day) is 51. Further, in the series with rheumatoid arthritis (setting [9]), the ESR result is listed as “reduction” and the “reduction of the sialic acid content of the blood” value was 0.05 optical density units. For the same compound, the “time to beginning of improvement of therapeutic indices” value in the series with rheumatoid arthritis (not later than, after the beginning of treatment) lay in the range of 3 to 4 weeks. Moreover, the “patients in whom morning-time torpidity disappeared completely” value with rheumatoid arthritis (of 69 patients) came out at 48 patients. For the same compound, in the series with rheumatoid arthritis (of the eight gravest patients), the “patients managing on essentially reduced doses of corticosteroids” value is on record as “six” and the “patients who do not need corticosteroids any more” value is “two”. Also, in the series on rheumatoid arthritis (other patients), the “patients with only an abatement of the pain syndrome (arthralgia)” value worked out at 18 patients. In addition, in the series with rheumatoid arthritis (other patients, shortened from 103.3±14.4 min), the “period of morning-time torpidity after treatment” value worked out at 41.4 ± 9.73 min. Also, the “patients with abatement of morning-time torpidity and greater scope of joint movement” value with rheumatoid arthritis (out of the 69 patients) is on record as 59 patients. The leukocyte count entry in the series with rheumatoid arthritis (patients with leukopenias or leukocytoses accompanying rheumatoid arthritis) is reported as “tendency towards the normalization”. Besides, in the series with rheumatoid arthritis (rheumatoid arthritis), the “pain syndrome towards the end of the first week of treatment” value is recorded as “tangibly abated” and the “patients in whom improvement took much longer” value was 8 patients. The complete recovery entry in series [6] (of eight patients, intake for two years) is listed as “one”. In addition, in [6] (other cases of eight patients), the “effect in the other cases on complications due to corticosteroids and quinoline preparations” value is on record as “substantially alleviate the complications”. Also, in the series with systemic scleroderma [7] (five patients), the “reduction of skin induration, flexion contracture of the hand and sensation of skin tension” value is “All of them manifested a reduction”. In the series with systemic scleroderma [7] (of five patients, 1.5 year course, after a three-year interval), the “patients who resumed work” value is “One”. The “concentration of corticosteroids in the blood” value with adrenal cortex is reported as “increase”. Further, the “function of the adrenal cortex” value in [8] (as testified by rising corticosteroids content of the blood) is reported as “stimulates the function of the adrenal cortex”. The “complications of indole derivatives (ulceration, mental disorders)” value in series [8] (even when used for many years) is given as “does not cause such complications”. Further, in series [8] (in vivo), the “dosage of prescribed corticosteroids” value is given as “to be reduced and, in individual cases, discontinuing them altogether”; the “general and water-and-salt metabolic disorders” value was “does not cause general and water-and-salt metabolic disorders”; the toxicity result is on record as “low toxicity”. Moreover, the “complications of antimalarials (leukopenia; acoustic and optic nerves, liver, myocardium)” value in [8] (lasting administration (1-2 years and more)) is “does not cause the above-mentioned complications”. In addition, the pre-existing metabolic disorders result in series [8] (when present) was “tend to normalize”.

For `COc1ccc2c(c1)c(CC(=O)O)c(C)n2C(=O)c1ccc(Cl)cc1` [Indometacin], in the series on systemic scleroderma [1], the “whether the above results are produced in systemic scleroderma” value was “not produced”. In series [2] (derivatives of indole), the mental disorders result is “confused consciousness, somnolency”. The ulcerogenic effect result in [2] (derivatives of indole, ulceration of the stomach, esophagus, the intestine) is “possess an ulcerogenic effect”.

(Values after patent US4151281A, “Medicinal preparation for the treatment of collagenoses of a rheumatoid nature” (priority 1977, dated 1979).)
